Experimental data taken from US8822530B2, “Sulfur derivatives as chemokine receptor modulators” (Allergan, Inc., priority 2010, dated 2014).

Molecular target: T1, CCR2 receptor (Homo sapiens, UniProt P41597)
T1 construct: expressed in transfected cells
Assay: Calcium activity assay on FLIPR Tetra in HEK-Gqi5 cells stably expressing CCR2
Format: cell-based
Description: HEK-Gqi5 cells stably expressing CCR2 were cultured in DMEM high glucose, 10% FBS, 1% PSA, 400 μg/ml geneticin and 50 μg/ml hygromycin. Appropriate positive control chemokines (MCP-1, MIP1A or RANTES) was used as the positive control agonist for screening compound-induced calcium activity assayed on the FLIPR^Tetra. The drug plates were prepared in 384-well microplates using the EP3 and the MultiPROBE robotic liquid handling systems. Compounds were synthesized and tested for CCR2 activity.

T1 sequence (P41597 whole entry): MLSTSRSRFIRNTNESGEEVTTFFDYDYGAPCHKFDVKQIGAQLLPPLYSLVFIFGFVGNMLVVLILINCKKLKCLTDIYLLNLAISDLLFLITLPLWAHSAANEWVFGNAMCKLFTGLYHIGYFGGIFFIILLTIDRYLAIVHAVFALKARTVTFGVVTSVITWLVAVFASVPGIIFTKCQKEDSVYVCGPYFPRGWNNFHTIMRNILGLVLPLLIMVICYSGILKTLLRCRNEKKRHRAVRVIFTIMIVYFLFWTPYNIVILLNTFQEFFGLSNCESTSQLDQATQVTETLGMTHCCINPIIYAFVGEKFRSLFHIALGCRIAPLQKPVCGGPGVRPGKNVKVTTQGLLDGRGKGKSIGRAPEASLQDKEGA

SMILES	CCR2 % ANTAGONISM [%]	IC50 [nM]
O=C1CCc2cc(NS(=O)(=O)c3cc4ccccc4o3)c(S(=O)(=O)Cc3ccccc3)cc21 [N-[6-(benzylsulfonyl)-1-oxo-2,3-dihydro-1H-inden-5-yl]-1-benzofuran-2-sulfonamide]	45	2240
O=C(CC[S+]([O-])c1ccc(Cl)cc1NS(=O)(=O)c1ccc(Cl)c(C(F)(F)F)c1)N1CCCC1 (stereo not drawn) [4-chloro-N-(5-chloro-2-{[3-oxo-3-(pyrrolidin-1-yl)propyl]sulfinyl}phenyl)-3-(trifluoromethyl)benzenesulfonamide]	72	1660
CS(=O)(=O)Nc1cccc(CS(=O)(=O)c2ccc(Cl)cc2NS(=O)(=O)c2cc3ccccc3o2)c1 [N-[5-chloro-2-({3-[(methylsulfonyl)amino]benzyl}sulfonyl)phenyl]-1-benzofuran-2-sulfonamide]	91	6570
O=C(O)c1ccccc1CSc1ccc(F)cc1NS(=O)(=O)c1cc2ccccc2o1 [2-[({2-[(1-benzofuran-2-ylsulfonyl)amino]-4-fluorophenyl}sulfanyl)methyl]benzoic acid]	99	11
O=C(O)CSc1ccc(Cl)cc1NS(=O)(=O)c1cc2ccccc2o1 [({2-[(1-benzofuran-2-ylsulfonyl)amino]-4-chlorophenyl}sulfanyl)acetic acid]	95	484
COC(=O)CC[S+]([O-])c1ccc(Cl)cc1NS(=O)(=O)c1ccc(Cl)cc1F (stereo not drawn) [methyl 3-[(4-chloro-2-{[(4-chloro-2-fluorophenyl)sulfonyl]amino}phenyl)sulfinyl]propanoate]	93	98
O=C(O)c1ccccc1CS(=O)(=O)c1ccc(F)cc1NS(=O)(=O)c1cc2ccccc2o1 [2-[({2-[(1-benzofuran-2-ylsulfonyl)amino]-4-fluorophenyl}sulfonyl)methyl]benzoic acid]	89	2470
O=C1CCc2cc(NS(=O)(=O)c3cc4ccccc4o3)c([S+]([O-])Cc3ccccc3)cc21 (stereo not drawn) [N-[6-(benzylsulfinyl)-1-oxo-2,3-dihydro-1H-inden-5-yl]-1-benzofuran-2-sulfonamide]	73	–
O=C(NCC[N+]1([O-])CCCC1)c1cccc(CS(=O)(=O)c2ccc(Cl)cc2NS(=O)(=O)c2ccc(Cl)c(C(F)(F)F)c2)c1 [3-({[4-chloro-2-({[4-chloro-3-(trifluoromethyl)phenyl]sulfonyl}amino)phenyl]sulfonyl}methyl)-N-[2-(1-oxidopyrrolidin-1-yl)ethyl]benzamide]	51	–
COC(=O)CCS(=O)(=O)c1ccc(Cl)cc1NS(=O)(=O)c1ccc(Cl)cc1F [methyl 3-[(4-chloro-2-{[(4-chloro-2-fluorophenyl)sulfonyl]amino}phenyl)sulfonyl]propanoate]	82	212
N#Cc1ccc(NS(=O)(=O)c2cc3ccccc3o2)c(SCc2ccccc2)c1 [N-[2-(benzylsulfanyl)-4-cyanophenyl]-1-benzofuran-2-sulfonamide]	79	604
CS(=O)(=O)Nc1cccc(C[S+]([O-])c2ccc(Cl)cc2NS(=O)(=O)c2cc3ccccc3o2)c1 (stereo not drawn) [N-[5-chloro-2-({3-[(methylsulfonyl)amino]benzyl}sulfinyl)phenyl]-1-benzofuran-2-sulfonamide]	77	2420
COC(=O)c1ccccc1C[S+]([O-])c1ccc(F)cc1NS(=O)(=O)c1cc2ccccc2o1 (stereo not drawn) [methyl 2-[({2-[(1-benzofuran-2-ylsulfonyl)amino]-4-fluorophenyl}sulfinyl)methyl]benzoate]	91	140
COC(=O)c1ccccc1CSc1ccc(Cl)cc1NS(=O)(=O)c1ccc(Cl)c(C(F)(F)F)c1 [methyl 2-({[4-chloro-2-({[4-chloro-3-(trifluoromethyl)phenyl]sulfonyl}amino)phenyl]sulfanyl}methyl)benzoate]	88	2380
O=C(O)c1ccccc1C[S+]([O-])c1ccc(Cl)cc1NS(=O)(=O)c1cc2ccccc2o1 (stereo not drawn) [2-[({2-[(1-benzofuran-2-ylsulfonyl)amino]-4-chlorophenyl}sulfinyl)methyl]benzoic acid]	98	806
CCN(C)C(=O)CC[S+]([O-])c1ccc(Cl)cc1NS(=O)(=O)c1ccc(Cl)cc1F (stereo not drawn) [3-[(4-chloro-2-{[(4-chloro-2-fluorophenyl)sulfonyl]amino}phenyl)sulfinyl]-N-ethyl-N-methylpropanamide]	89	7520
COC(=O)CCSc1ccc(Cl)cc1NS(=O)(=O)c1cc2ccccc2o1 [methyl 3-({2-[(1-benzofuran-2-ylsulfonyl)amino]-4-chlorophenyl}sulfanyl)propanoate]	91	864
CC(=O)Nc1cccc(CSc2ccc(Cl)cc2N(C(C)=O)S(=O)(=O)c2cc3ccccc3o2)c1 [N-(2-{[3-(acetylamino)benzyl]sulfanyl}-5-chlorophenyl)-N-(1-benzofuran-2-ylsulfonyl)acetamide]	73	1610
COC(=O)c1ccccc1CS(=O)(=O)c1ccc(Cl)cc1NS(=O)(=O)c1ccc(Cl)c(C(F)(F)F)c1 [methyl 2-({[4-chloro-2-({[4-chloro-3-(trifluoromethyl)phenyl]sulfonyl}amino)phenyl]sulfonyl}methyl)benzoate]	82	515
CCN(CC)C(=O)CCS(=O)(=O)c1ccc(Cl)cc1NS(=O)(=O)c1ccc(Cl)c(C(F)(F)F)c1 [3-{[4-chloro-2-({[4-chloro-3-(trifluoromethyl)phenyl]sulfonyl}amino)phenyl]sulfonyl}-N,N-diethylpropanamide]	61	1860
O=S(=O)(Cc1ccccc1)c1ccc(Cl)cc1NS(=O)(=O)c1ccc(Cl)c(C(F)(F)F)c1 [N-[2-(benzylsulfonyl)-5-chlorophenyl]-4-chloro-3-(trifluoromethyl)benzenesulfonamide]	71	538
CC(=O)Nc1cccc(C[S+]([O-])c2ccc(Cl)cc2NS(=O)(=O)c2cc3ccccc3o2)c1 (stereo not drawn) [N-{3-[({2-[(1-benzofuran-2-ylsulfonyl)amino]-4-chlorophenyl}sulfinyl)methyl]phenyl}acetamide]	95	–
CCN(C)C(=O)CCS(=O)(=O)c1ccc(Cl)cc1NS(=O)(=O)c1ccc(Cl)cc1F [3-[(4-chloro-2-{[(4-chloro-2-fluorophenyl)sulfonyl]amino}phenyl)sulfonyl]-N-ethyl-N-methylpropanamide]	87	2260

Results, then the molecule that gave them:

CCR2 % ANTAGONISM [%]	IC50 [nM]	SMILES
23	2100	O=C(O)c1ccc(C[S+]([O-])c2ccc(Cl)cc2NS(=O)(=O)c2ccc(Cl)c(C(F)(F)F)c2)cc1 (stereo not drawn) [4-({[4-chloro-2-({[4-chloro-3-(trifluoromethyl)phenyl]sulfonyl}amino)phenyl]sulfinyl}methyl)benzoic acid]
99	853	O=C(O)c1ccccc1C[S+]([O-])c1ccc(Cl)cc1NS(=O)(=O)c1ccc(Cl)c(C(F)(F)F)c1 (stereo not drawn) [2-({[4-chloro-2-({[4-chloro-3-(trifluoromethyl)phenyl]sulfonyl}amino)phenyl]sulfinyl}methyl)benzoic acid]
56	1690	CCN(CC)C(=O)CC[S+]([O-])c1ccc(Cl)cc1NS(=O)(=O)c1ccc(Cl)c(C(F)(F)F)c1 (stereo not drawn) [3-{[4-chloro-2-({[4-chloro-3-(trifluoromethyl)phenyl]sulfonyl}amino)phenyl]sulfinyl}-N,N-diethylpropanamide]
101	1580	O=C(O)c1cccc(CS(=O)(=O)c2ccc(Cl)cc2NS(=O)(=O)c2ccc(Cl)c(C(F)(F)F)c2)c1 [3-({[4-chloro-2-({[4-chloro-3-(trifluoromethyl)phenyl]sulfonyl}amino)phenyl]sulfonyl}methyl)benzoic acid]
77	493	O=S(=O)(Nc1cc(Cl)ccc1[S+]([O-])Cc1ccccc1)c1ccc(Cl)c(C(F)(F)F)c1 (stereo not drawn) [N-[2-(benzylsulfinyl)-5-chlorophenyl]-4-chloro-3-(trifluoromethyl)benzenesulfonamide]
105	–	O=C(O)c1ccccc1CS(=O)(=O)c1ccc(Cl)cc1NS(=O)(=O)c1ccc(Cl)c(C(F)(F)F)c1 [2-({[4-chloro-2-({[4-chloro-3-(trifluoromethyl)phenyl]sulfonyl}amino)phenyl]sulfonyl}methyl)benzoic acid]
102	56	O=C(O)c1cccc(CSc2ccc(Cl)cc2NS(=O)(=O)c2ccc(Cl)c(C(F)(F)F)c2)c1 [3-({[4-chloro-2-({[4-chloro-3-(trifluoromethyl)phenyl]sulfonyl}amino)phenyl]sulfanyl}methyl)benzoic acid]
24	–	O=C(O)CNC(=O)c1ccc(C[S+]([O-])c2ccc(Cl)cc2NS(=O)(=O)c2ccc(Cl)c(C(F)(F)F)c2)cc1 (stereo not drawn) [({[4-({[4-chloro-2-({[4-chloro-3-(trifluoromethyl)phenyl]sulfonyl}amino)phenyl]sulfinyl}methyl)phenyl]carbonyl}amino)acetic acid]
75	–	O=C(O)CNC(=O)c1ccc(CSc2ccc(Cl)cc2NS(=O)(=O)c2ccc(Cl)c(C(F)(F)F)c2)cc1 [({[4-({[4-chloro-2-({[4-chloro-3-(trifluoromethyl)phenyl]sulfonyl}amino)phenyl]sulfanyl}methyl)phenyl]carbonyl}amino)acetic acid]
55	2970	COC(=O)c1cccc(CS(=O)(=O)c2ccc(Cl)cc2NS(=O)(=O)c2ccc(Cl)c(C(F)(F)F)c2)c1 [methyl 3-({[4-chloro-2-({[4-chloro-3-(trifluoromethyl)phenyl]sulfonyl}amino)phenyl]sulfonyl}methyl)benzoate]
